From patent publication US20230152324A1, “TUMOR-INTRINSIC NLRP3 INFLAMMASOME SIGNALING PATHWAY AS A GENETIC AND FUNCTIONAL BIOMARKER FOR IMMUNOTHERAPY RESPONSE” (Duke University, priority 2021, published 2023)

Key:
[1] = tested on: BRAF^V600EPTEN^−/− melanoma-bearing NLRP3^−/− mice; assay: Anti-PD-1 alone or with MCC950 in BRAFV600EPTEN−/− melanoma-bearing NLRP3−/− mice; format: in vivo, mouse
[2] = tested on: autochthonous BRAF^V600EPTEN^−/− melanoma model; assay: Autochthonous (transgenic) BRAFV600EPTEN−/− melanoma model treated with anti-PD-1 ± MCC950 or anti-HSP70 antibody; format: in vivo, mouse
Source text: Prior studies have described disease hyper-progression (HPD) occurring in response to anti-PD-1 immunotherapy, a phenomenon estimated by some authors to develop in ˜10% of all solid tumors (5). In HPD, tumor burden can dramatically increase in response to exposure to anti-PD-1 immunotherapy. Given our prior data describing a role for the tumor-intrinsic NLRP3-HSP70 signaling axis as an important driver of PMN-MDSC accumulation in distant lung tissues in response to anti-PD-1 immunotherapy, we hypothesized that this same tumor-intrinsic signaling pathway can establish an immunologic environment capable of facilitating HPD. […]
B6.Cg-Braf^tm1Mmcm Pten^tm1Hwu Tg(Tyr-cre/ERT2 H-2^b)13Bos/BosJ transgenic mice were subdermally injected with 4-Hydroxytamoxifen (4-HT) (Sigma, H6278-50MG CCF, 38.75 μg/mouse) to induce primary melanoma development at the base of the tail. […] Primary tumor volumes were monitored by orthogonal caliper measurements every 3 days. Tumor volume was calculated according to the formula: cm^3=[(length, cm)×(width, cm)^2]/2.
Small representative tissue specimens were harvested from tumors and lungs and stored in RNAlater at −80° C. […] Total RNA was isolated by RNeasy Plus Mini Kit (Qiagen, 74134) and RNA was quantified by NanoDrop. […] All data were normalized to Actb expression and relative gene expression was quantitated based on the 2ΔΔCt method. […]

non-tumor-bearing mice = assay: Recombinant HSP70 i.p. delivery into non-tumor-bearing mice (lung Western blot, flow cytometry); format: in vivo, mouse; conditions: rHSP70 i.p. vs normal saline
Source text: (§1) Indeed, while we were able to detect soluble HSP70 as a secretion product of human melanoma cell lines, we were not able to detect the production of active IL-1β (FIGS. 12B and C). […] We have previously shown that the tumor-intrinsic NLRP3 inflammasome drives PMN-MDSC recruitment via an autocrine signaling pathway dependent on soluble HSP70 (19). […] To determine whether HSP70 could play the role of a soluble mediator in the induction of CXCR2-dependent chemokines in the distant lung, we delivered recombinant HSP70 (rHSP70) into non-tumor-bearing mice by intra-peritoneal (i.p.) injection and measured CXCL5 expression by whole lung tissue Western blot analysis as well as PMN-MDSC accumulation in the lung by flow cytometry. […] Based on these cumulative findings, we hypothesized that tumor-derived HSP70 signals through TLR4 to promote PMN-MDSC trafficking to these distant tissues. […]
Cells (1-2×10^6) were diluted in 150 μl flow buffer per well of V bottom culture plates, incubated with Live/Dead Stain (Sigma) on ice for 20 mins, washed twice, and incubated with Fc Block (anti-CD16/CD32, 2 ug/mL) before staining with appropriate conjugated antibodies. Cells were washed, resuspended in 2% paraformaldehyde for 15 mins at 4° C., and analyzed using a BD FACSCanto flow cytometry system. […]

[3] = tested on: CD45^−EpCAM^+ lung epithelial cells of TLR4^f/f and SPC-TLR4^−/− mice; assay: rHSP70 i.p. in TLR4f/f and SPC-TLR4−/− transgenic mice, qrt-PCR of sorted lung epithelial cells; format: in vivo, mouse; conditions: rHSP70 i.p. vs saline
Source text: as §1
Small representative tissue specimens were harvested from tumors and lungs and stored in RNAlater at −80° C. […] Total RNA was isolated by RNeasy Plus Mini Kit (Qiagen, 74134) and RNA was quantified by NanoDrop. […]

[4] = tested on: MLE12 lung epithelial cells; assay: MLE12 lung epithelial cell line Western blot after rHSP70 ± TLR4 inhibitor or recombinant Wnt5a; format: cell-based, murine; conditions: for G-CSF expression: in vitro lung epithelial cells

Molecule: CC(C)(O)c1coc(S(=O)(=O)NC(=O)Nc2c3c(cc4c2CCC4)CCC3)c1 [MCC950]
- anti-PD-1-induced accumulation of PMN-MDSCs into lung tissues ([1]; MCC950 in combination with anti-PD-1, lung tissue and BALF): largely eliminated
- upregulation of Wnt5a expression in lung tissues ([1]; MCC950 with anti-PD-1, Western blot): suppress the upregulation of Wnt5a expression in lung tissues
- metastatic progression to the lung ([2]; MCC950 with anti-PD-1, S100β IHC and TRP2 qrt-PCR): inhibiting metastatic progression
- PMN-MDSC populations in the lung ([2]; MCC950 with anti-PD-1 vs anti-PD-1): suppress PMN-MDSC populations in the lung

Molecule: rHSP70: recombinant HSP70 delivered by intra-peritoneal injection or added to cells
- CXCL5 expression in whole lung tissue (non-tumor-bearing mice; Western blot): induce CXCL5 expression
- PMN-MDSC accumulation in the lung (non-tumor-bearing mice; flow cytometry): promote the accumulation of PMN-MDSCs in lung tissues
- Wnt5a and Cxcl5 expression in lung epithelial cells [3]: upregulated only in lung epithelial cells expressing TLR4
- Wnt5a expression ([4]; MLE12 cells, rHSP70 ± TLR4 inhibitor): induce Wnt5a expression in a TLR4-dependent manner
- G-CSF expression [4]: induce modest G-CSF upregulation

B1: Wnt5a: recombinant Wnt5a (R&D Systems/Bio-techne, 645-WN-010) used to treat cell lines (protein, UniProt P22725 62-380, looked up)
Protein Wnt-5a: IIGAQPLCSQLAGLSQGQKKLCHLYQDHMQYIGEGAKTGIKECQYQFRHRRWNCSTVDNTSVFGRVMQIGSRETAFTYAVSAAGVVNAMSRACREGELSTCGCSRAARPKDLPRDWLWGGCGDNIDYGYRFAKEFVDARERERIHAKGSYESARILMNLHNNEAGRRTVYNLADVACKCHGVSGSCSLKTCWLQLADFRKVGDALKEKYDSAAAMRLNSRGKLVQVNSRFNSPTTQDLVYIDPSPDYCVRNESTGSLGTQGRLCNKTSEGMDGCELMCCGRGYDQFKTVQTERCHCKFHWCCYVKCKKCTEIVDQFVCK
- G-CSF expression [4]: more immediate driver of G-CSF
